In series [1] the test system is Alternaria solani. The experiment in a line: Alternaria solani/tomato/preventive (action against Alternaria on tomato). It counts as in vivo. To be noted: 96 h, tomato plants cv. Roter Gnom, preventive spray, assessed 4 days after inoculation, read-out: inhibit fungal infestation. The procedure: Alternaria solani/Tomato/Preventive (Action Against Alternaria on Tomato) 4 weeks old tomato plants cv. Roter Gnom are treated with the formulated test compound in a spray chamber. Two days after application tomato plants are inoculated by spraying a spore suspension on the test plants. After an incubation period of 4 days at 22° C./18° C. and 95% r.h. in a greenhouse the disease incidence is assessed.

For series [2], the system named is Botrytis cinerea. Put plainly: Botrytis cinerea/tomato/preventive (action against Botrytis on tomato). To be noted: 72 h, tomato plants cv. Roter Gnom, preventive spray, assessed 3 days after inoculation, read-out: inhibit fungal infestation. It counts as in vivo. How it is done: Botrytis cinerea/tomato/preventive (Action against Botrytis on tomato) 4 weeks old tomato plants cv. Roter Gnom are treated with the formulated test compound in a spray chamber. Two days after application tomato plants are inoculated by spraying a spore suspension on the test plants. After an incubation period of 3 days at 20° C. and 95% r. h. in a greenhouse the disease incidence is assessed.

Series [3] deals with Puccinia recondita. Put plainly: Puccinia recondita/wheat/preventive (action against brown rust on wheat). It is filed as in vivo. Conditions: 264 h, wheat plants cv. Arina, preventive spray, assessed 11 days after inoculation, read-out: inhibit fungal infestation. How it is done:
Puccinia recondita/Wheat/Preventive (Action Against Brown Rust on Wheat) 1 week old wheat plants cv. Arina are treated with the formulated test compound in a spray chamber. One day after application wheat plants are inoculated by spraying a spore suspension ([…] uredospores/ml) on the test plants. After an incubation period of 1 day at 20° C. and 95% r.h. plants are kept for 10 days 20° C./18° C. (day/night) and 60% r.h. in a greenhouse. The disease incidence is assessed 11 days after inoculation.

The subject of series [4] is Maqnaporthe qrisea (Pyricularia oryzae). The experiment in a line: whole plant or invertebrate. It is filed as in vivo. Conditions: 144 h, read-out: inhibit fungal infestation.
Series [5] has as its system Pyrenophora teres (Helminthosporium teres). The experiment in a line: Pyrenophora teres (Helminthosporium teres)/barley/preventive (action against net blotch on barley). It counts as in vivo. Conditions: 96 h, barley plants cv. Regina, preventive spray, assessed 4 days after inoculation, read-out: inhibit fungal infestation. How it is done: Pyrenophora teres (Helminthosporium teres)/Barley/Preventive (Action Against Net Blotch on Barley) 1-week-old barley plants cv. Regina are treated with the formulated test compound in a spray chamber. Two days after application barley plants are inoculated by spraying a spore suspension (2.6×10^4 conidia/ml) on the test plants. After an incubation period of 4 days at 20° C. and 95% r.h. the disease incidence is assessed.

The subject of series [6] is Septoria tritici. Put plainly: Septoria tritici/wheat/preventive (action against Septoria leaf spot on wheat). It is filed as in vivo. To be noted: Zymoseptoria tritici, wheat plants cv. Riband, preventive spray, assessed 16-18 days after inoculation, read-out: inhibits fungal infestation. The procedure: Septoria tritici/Wheat/Preventive (Action Against Septoria Leaf Spot on Wheat) 2 weeks old wheat plants cv. Riband are treated with the formulated test compound in a spray chamber. One day after application wheat plants are inoculated by spraying a spore suspension (10^6 conidia/ml) on the test plants. After an incubation period of 1 day at 22° C./21° C. and 95% r.h. plants are kept at 22° C./21° C. and 70% r.h. in a greenhouse. The disease incidence is assessed 16-18 days after inoculation.

Series [7] deals with Uncinula necator. The experiment in a line: Uncinula necator/grape/preventive (action against powdery mildew on grape). It is filed as in vivo. Conditions: Erysiphe necator, 168 h, grape seedlings cv. Gutedel, preventive spray, assessed 7 days after inoculation, read-out: inhibit fungal infestation. The procedure: Uncinula necator/Grape/Preventive (Action Against Powdery Mildew on Grape) 5 weeks old grape seedlings cv. Gutedel are treated with the formulated test compound in a spray chamber. One day after application grape plants are inoculated by shaking plants infected with grape powdery mildew above the test plants. After an incubation period of 7 days at 24° C./22° C. and 70% r.h. under a light regime of 14/10 h (light/dark) the disease incidence is assessed.

Results on two molecules are retold here after patent US20100273804A1, “PYRIDAZINE DERIVATIVES USEFUL AS FUNGICIDES AND FOR THE TREATMENT OF CANCER” (SYNGENTA CROP PROTECTION, INC., priority 2007, published 2010).

As a reminder, the melting point is the temperature of the solid-liquid transition.

A value given as a limit tells only on which side of the number the result lay.

`Cc1nnc(Cl)c(-c2c(F)cc(F)cc2F)c1Cc1ccc(Cl)cc1` [I.k.158, 3-chloro-5-(4-chloro-benzyl)-6-methyl-4-(2,4,6-trifluoro-phenyl)-pyridazine]: the inhibition at 200 ppm in series [1], in series [2], in series [3], in series [4], in series [5] and in series [6] was no less than 80% each time. The inhibition at 200 ppm in series [7] is no less than 80%.

The molecule `Cc1n[nH]c(=O)c(-c2c(F)cc(F)cc2F)c1Cc1ccc(Cl)cc1` [I.k.157, 5-(4-chloro-benzyl)-6-methyl-4-(2,4,6-trifluoro-phenyl)-2H-pyridazin-3-one] came in with a melting point of 212 to 215 °C.
